Laboratory results from patent publication EP4289427A1, “DIHYDRO[1,8]NAPHTHYRIDIN-7-ONE AND PYRIDO[3,2-B][1,4]OXAZIN-3-ONE FOR USE IN TREATING CANCER, AND METASTASES IN PARTICULAR” (Anagenesis Biotechnologies, priority 2022, dated 2023).

How the values were obtained:
RD cells [1] = test: Cytotoxicity assay (CellTiter-Glo 2.0) on RD cells; assay type: cell-based, Human; details: for IC50: Homo sapiens
How it was run: (§1)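 Viability read-out: ATP-based luminescence (CellTiter-Glo 2.0, 10 min, RT, dark) after compound exposure of freshly seeded cells for a cell-line-specific duration; relative IC50 derived from viability.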

RD cells [2] = test: Differentiation of RD cells into myotubes (alpha-actinin staining); assay type: cell-based, Human; details: 7 days, Figure 3
Method: RD cells are cancer cells of muscle origin that arose from myogenic precursors that fail to complete muscle differentiation. One strategy to stop their progression is to differentiate them into myotubes.
To allow differentiation, RD cells were seeded at a density of 3500 cells/well in a 384-well plate coated with collagen type I, in DMEM (4,5g/L glucose) with L-Gln (cat.no. 41965-039 from Gibco) supplemented with 5% of knockout serum replacement (cat.no. 10828-028 from Gibco), 1% PenStrep (Gibco), 1% MEM NEAA (Gibco) and 0.1 mM 2-mercaptoethanol (Gibco) (hereafter "K5 medium"). Compounds to be tested were then added onto the cells and incubated for 7 days at 37°C. On day 7, cells were fixed with 4% paraformaldehyde solution and immunostained for α-actinin (cat.no. EA-53 from Sigma, at 1/30000).

HUVECs = test: Tube formation assay (anti-angiogenic activity); assay type: cell-based, human; details: incubation 16 to 18 hours
How it was run: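 HUVECs plated at 5000 cells/well on reduced growth factor basement membrane matrix, then exposed to compounds for 16 to 18 hours at 37°C. Cells stained with calcein-AM; tube networks imaged by confocal fluorescence microscopy and quantified.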

4T1 cells [3] = test: Cytotoxicity assay (CellTiter-Glo 2.0) on 4T1 cells; assay type: cell-based, Mouse; details: incubation 2 days
How it was run: as §1

4T1 cells [4] = test: Epithelial-mesenchymal transition marker expression by qRT-PCR; assay type: cell-based, Mouse; set-up: key: ↗: increased expression; ↘: decreased expression; =: unchanged expression levels; details: 24 hours, expression normalized against RPL13
From the text: The epithelial-mesenchymal transition (hereafter "EMT") is a process by which epithelial cells lose their cell polarity and cell-cell adhesion while gaining migratory and invasive properties to become mesenchymal stem cells. EMT is commonly measured by quantifying both epithelial and mesenchymal marker's expression by quantitative reverse-transcription polymerase chain reaction (hereafter "qRT-PCR"). EMT inhibition is observed when epithelial markers are stable or increased while mesenchymal markers are decreased.
4T1 cells were treated with compounds to be tested or DMSO for 24 hours. 4T1 cells were then harvested directly in NucleoZol lysis buffer (cat. no. 740404.200 from Macherey-Nagel), according to the manufacturer's instructions. Total RNA was extracted using the NucleoSpin RNA set for NucleoZol (cat. no. 740406.50 from Macherey-Nagel). The quantity and purity of RNA was determined using a Quickdrop (Molecular Devices). RT-PCR was performed on 500 ng total RNA using iScript gDNA clear cDNA synthesis Kit (cat.no. 1725035 from Biorad). The qPCR was run on a QuantStudio 5 real time thermocycler (Applied Biosystems), with PowerUp SYBR Green Master Mix (cat.no. A25742 from Fisher Scientific) and the primers listed in Table 16.
Expression data of EMT markers have been normalized against expression data of the housekeeping gene RPL13.

4T1 cells [5] = test: Colony forming (clonogenic) assay; assay type: cell-based, Mouse; details: 6 days of treatment, Figure 2
Method: Cancer stem cells are characterized by their ability to undergo virtually unlimited divisions. Colony forming assay (or clonogenic assay) is an in vitro assay designed to assess capability of single cells to grow into large colonies through clonal expansion.
4T1 cells were seeded at a density of 500 cells per well of six-well plates in 4T1 medium. Compounds to be tested were added 24 hours after seeding. After 6 days of treatment, the cells were fixed in 4% PFA and stained with 1% aqueous solution of crystal violet. Pictures of the entire wells were acquired, and the area of the positives colonies was evaluated by ImageJ software (Wayne Rasband; NIH).

MDA-MB-231 cells [6] = test: Scratch (wound healing) assay, cell migration; assay type: cell-based, Human; details: 24 hours, Figure 1
Method: Cell migration is involved in several pathological cancer processes such as tumor invasion, neoangiogenesis and metastasis. Scratch (or wound healing) assay is a method to study two-dimensional cell migration in vitro. It is based on the observation that cells growing in a monolayer migrate to reestablish cell contacts after a mechanical scratch wound.
The MDA-MB-231 cells were seeded into a 24-well plate and grown to confluent density. A scrape was made in each well using a pipette tip. Then, the cells monolayers were incubated for 2 hours with 5 µg/ml mitomycin C to stop cell proliferation. The cells were treated with the compounds to be tested for 24 hours. The cells were stained using CellMask Green actin tracking stain (cat.no. A57246 from Fisher Scientific) at time zero and at endpoint. Pictures were acquired using a fluorescence microscope (IXM from Molecular Device). The scratch area was measured with the ImageJ software. The recovery of the scratch area was calculated as a percentage of the scratch area at time zero.

EoL-1 cells = test: Cytotoxicity assay (CellTiter-Glo 2.0) on EoL-1 cells; assay type: cell-based, Human; details: incubation 1 day
How it was run: as §1

Src kinase family = test: Human phospho-kinase array in RD cells; assay type: cell-based; details: 1 hour at its IC50, Figure 4
Method: Inhibition of kinases can be observed by quantifying both their phosphorylation levels and the phosphorylation level of downstream proteins in their pathways.
RD cells were cultured in vitro and expanded for 4 days prior to the experiments (see example 3.1 and table 6a for details). The assay was performed using the human phospho-kinase array kit (cat.no. ARY003C from R&D Systems), according to the manufacturer's instructions. The RD cells were treated with compound #032 for 1 hour at its IC50 (previously defined) and lysed with lysis buffer supplemented with aprotinin, leupeptin and pepstatin. The total protein extract was titrated using a micro-BCA kit (cat. no. 23235 from Thermofisher Scientific). The array membranes were blocked and incubated overnight at 4 °C with 500 µg of total protein. Then, the detection antibodies were added for 2 hours followed by the HRP-conjugated Streptavidin solution for 30 minutes. The chemiluminescent signal was finally developed by incubating the membranes with the chemi-reagent mix and placed in the Fusion-FX acquisition system (Vilber Instruments). Data were analyzed using ImageJ software (Wayne Rasband; NIH).

MDA-MB-231 cells [7] = test: Cytotoxicity assay (CellTiter-Glo 2.0) on MDA-MB-231 cells; assay type: cell-based, Human; details: incubation 3 days
How it was run: as §1

CSc1cc(Oc2ccnc3c2CCC(=O)N3)ccc1NC(=O)Nc1cc(C(C)(C)C)nn1-c1ccc(C)nc1 [Compound 032, 1-[5-tert-butyl-2-(6-methyl-3-pyridyl)pyrazol-3-yl]-3-[2-methylsulfanyl-4-[(7-oxo-6,8-dihydro-5H-1,8-naphthyridin-4-yl)oxy]phenyl]urea]
Cytotoxicity (RD cells [1]; 2 day-treatment): ++ (50% ≤ cytotoxicity < 85%) | Cytotoxicity (RD cells [1]; 4 day-treatment): +++ (cytotoxicity ≥ 85%) | IC50 (RD cells [1]; 48 h, 2 day-treatment): 1000 to 5000 nM | IC50 (RD cells [1]; 96 h, 4 day-treatment): 1000 to 5000 nM | differentiation into myotubes (RD cells [2]): dose-dependent differentiation into myotubes | IC50 (HUVECs; Homo sapiens, HUVEC): < 100 nM | Angiogenesis inhibition (HUVECs): +++ (angiogenesis inhibition ≥ 80%) | IC50 (4T1 cells [3]; Mus musculus, 48 h): < 1000 nM | Cytotoxicity (4T1 cells [3]): +++ (cytotoxicity ≥ 85%) | Epithelial markers E-cadherin (4T1 cells [4]): ↗ | Epithelial markers EpCAM (4T1 cells [4]): ↗ | Mesenchymal markers Fibronectin (4T1 cells [4]): = | Mesenchymal markers Vimentin (4T1 cells [4]): ↘ | colony growth (4T1 cells [5]): inhibition of colony growth | migration in the scratch assay (MDA-MB-231 cells [6]): inhibition of their migration | IC50 (EoL-1 cells; Homo sapiens, EOL1, 24 h): 1 to 10 nM | Cytotoxicity (EoL-1 cells): +++ (cytotoxicity ≥ 85%) | phosphorylation of members of the Src kinase family and their downstream proteins (Src kinase family): decreased phosphorylation | IC50 (MDA-MB-231 cells [7]; Homo sapiens, 72 h): < 1000 nM | Cytotoxicity (MDA-MB-231 cells [7]): ++ (50% ≤ cytotoxicity < 85%)
